Measurements as given in patent US20140005119A1, “COMPOSITIONS AND METHODS FOR INHIBITING THE ACTIVITY OF P110a MUTANT PROTEINS” (Case Western Reserve University, priority 2012, published 2014).

Assays:
p110α-p85 interaction = target: T1, p110α-p85 interaction (Homo sapiens, UniProt P42336, E545K); assay: Peptide competition assay in cell lysates, p110α-p85 interaction; format: binding
T1 construct: tag the endogenous WT or mutant p110α with 3×FLAG at their C termini in DLD1 cells; endogenous in cells; host or cells: DLD1 p110α E545K 3×FLAG knock-in cells
T1 sequence (P42336 whole entry E545K): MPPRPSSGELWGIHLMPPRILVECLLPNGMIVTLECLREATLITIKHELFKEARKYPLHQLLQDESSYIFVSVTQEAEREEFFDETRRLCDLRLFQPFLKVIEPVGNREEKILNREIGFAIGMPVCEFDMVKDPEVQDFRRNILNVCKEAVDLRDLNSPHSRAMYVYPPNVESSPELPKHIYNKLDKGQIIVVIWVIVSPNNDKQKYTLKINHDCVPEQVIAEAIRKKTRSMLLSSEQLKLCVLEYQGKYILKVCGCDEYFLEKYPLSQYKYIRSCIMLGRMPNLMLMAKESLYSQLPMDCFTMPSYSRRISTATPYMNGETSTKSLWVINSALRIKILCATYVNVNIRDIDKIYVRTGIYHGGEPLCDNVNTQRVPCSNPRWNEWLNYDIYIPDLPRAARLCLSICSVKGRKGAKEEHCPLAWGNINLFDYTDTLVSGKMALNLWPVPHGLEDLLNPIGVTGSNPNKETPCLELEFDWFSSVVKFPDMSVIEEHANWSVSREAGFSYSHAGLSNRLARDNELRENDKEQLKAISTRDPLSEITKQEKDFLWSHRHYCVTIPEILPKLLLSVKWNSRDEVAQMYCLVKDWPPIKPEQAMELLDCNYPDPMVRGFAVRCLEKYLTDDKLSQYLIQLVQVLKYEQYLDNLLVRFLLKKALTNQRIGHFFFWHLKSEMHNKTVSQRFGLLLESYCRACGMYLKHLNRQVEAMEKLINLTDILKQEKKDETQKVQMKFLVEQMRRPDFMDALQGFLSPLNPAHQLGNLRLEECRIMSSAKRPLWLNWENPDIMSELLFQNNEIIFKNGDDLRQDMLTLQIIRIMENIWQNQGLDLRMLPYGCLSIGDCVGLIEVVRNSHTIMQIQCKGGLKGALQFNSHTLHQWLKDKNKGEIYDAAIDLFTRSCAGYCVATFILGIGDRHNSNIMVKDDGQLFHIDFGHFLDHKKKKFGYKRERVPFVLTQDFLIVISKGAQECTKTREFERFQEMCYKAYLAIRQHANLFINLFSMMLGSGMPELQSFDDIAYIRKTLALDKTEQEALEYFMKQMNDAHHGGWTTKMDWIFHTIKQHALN
T1 sequence (P27986 whole entry partner): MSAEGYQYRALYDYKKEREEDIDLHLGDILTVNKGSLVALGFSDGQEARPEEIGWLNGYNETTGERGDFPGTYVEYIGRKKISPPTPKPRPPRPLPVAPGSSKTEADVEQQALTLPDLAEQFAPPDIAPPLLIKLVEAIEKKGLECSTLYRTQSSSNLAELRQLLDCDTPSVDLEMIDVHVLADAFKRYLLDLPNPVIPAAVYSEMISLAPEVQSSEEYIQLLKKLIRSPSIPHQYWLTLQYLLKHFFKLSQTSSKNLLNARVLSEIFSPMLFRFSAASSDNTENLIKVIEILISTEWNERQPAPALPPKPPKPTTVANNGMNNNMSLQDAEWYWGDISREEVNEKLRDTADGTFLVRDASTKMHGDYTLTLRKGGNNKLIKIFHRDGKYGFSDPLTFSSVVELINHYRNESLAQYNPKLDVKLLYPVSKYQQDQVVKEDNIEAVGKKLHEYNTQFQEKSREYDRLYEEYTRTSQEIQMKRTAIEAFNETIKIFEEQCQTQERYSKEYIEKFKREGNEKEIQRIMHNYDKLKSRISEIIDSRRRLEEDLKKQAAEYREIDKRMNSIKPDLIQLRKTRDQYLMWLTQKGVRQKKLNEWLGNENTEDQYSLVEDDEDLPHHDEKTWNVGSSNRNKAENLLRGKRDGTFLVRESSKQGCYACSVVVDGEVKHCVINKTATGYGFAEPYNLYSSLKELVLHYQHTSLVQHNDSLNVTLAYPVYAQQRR
Method: FIGS. 3(A-M) illustrate: (A, B) Mapping peptides (P3, SEQ ID NO: 1; P4 SEQ ID NO: 2; P5, SEQ ID NO: 3; P6, SEQ ID NO: 4) derived from mutant p110α that inhibit interaction between IRS1 and p110α E545K. The indicated peptides were added into cell lysates made from the p110α E545K 3×FLAG KI cells. Cell lysates were immunoprecipitated with beads conjugated with anti-FLAG antibodies and then blotted with anti-IRS1 antibodies. (C) Immunoblots of cell lysates made from the p110α E545K 3×FLAG KI cells. Cell lysates were immunoprecipitated with beads conjugated with anti-FLAG antibodies and then blotted with the indicated antibodies. […] (J, K) Immunoblot and graph of purified recombinant p110α E545K mutant proteins mixed with the indicated components and quantified using an in vitro lipid kinase assay. […]
(§1) For Co-immunoprecipitation (Co-IP), cells were harvested, washed with PBS, and then lysed in IP buffer (50 mMTris [pH 7.4], 150 mMNaCl, 5 mMEDTA [pH 8.0], 0.5% NP40, 1 mM PMSF, complete Protease Inhibitor Cocktail tablet [Roche]; supplemented with phosphatase inhibitors [1 mM Na3VO4, 20 mM NaF, 0.1 mM b-glycerophosphate, 20 mM sodium pyrophosphate] when necessary). […] Lysates were then cleared by centrifugation (14,000 rpm, 10 min) and protein concentration in supernatants was determined with a BCA protein assay kit (Pierce, Rockford, Ill.). […]

[1] = target: T2, cellular p110α-p85 interaction (Homo sapiens, UniProt P42336, E545K); assay: Co-IP from treated cells, cellular p110α-p85 interaction; format: cell-based
T2 construct: tag the endogenous WT or mutant p110α with 3×FLAG at their C termini in DLD1 cells; endogenous in cells; host or cells: DLD1 p110α E545K 3×FLAG knock-in cells
T2 sequence (P42336 whole entry E545K): as the sequence (P42336 whole entry E545K) above
T2 sequence (P27986 whole entry partner): as the sequence (P27986 whole entry partner) above
Method: (§2) FIG. 4(A-F) illustrate: (A) Schematic diagram of linear and stapled WT and mutant peptides derived from p110α (SEQ ID NOs: 5, 6, 7 and 8). (B) Immunoblots of cell lysates immunoprecipitated with beads conjugated with anti-FLAG antibodies and then blotted with the indicated antibodies. Linear or stapled WT and mutant peptide were added into culture medium of the p110α E545K 3×FLAG KI cells for 16 hr. (C) Immunoblots of cell lysates immunoprecipitated with anti-p110α antibodies and then blotted with the indicated antibodies. Vaco481 CRC cells were treated with the stapled mutant peptides at the indicated concentration. (D) Immunoblots of cell lysates blotted with the indicated antibodies. The indicated cell lines were treated with the stapled mutant peptide. (E) Immunoblots of cell lysates blotted with the indicated antibodies. […]
as §1

p110α = assay: Immunoblot of treated cell lines, p110α protein level; format: cell-based, human
Method: as §2, §1

p85 and IRS1 = assay: Immunoblot of treated cell lines, p85 and IRS1 levels; format: cell-based, human
Method: as §2, §1

[2] = system: AKT and Foxo1 phosphorylation; assay: Immunoblot of AKT signaling in peptide-treated xenograft tumors; format: in vivo, mice
Method: FIG. 6 is an immunoblot illustrating the stapled mutant peptide inhibits AKT signaling in xenograft tumors.
Five-week-old male athymic nude mice were injected with 5 million cells subcutaneously and bilaterally. When tumor sizes reached 100-150 mm^3, 10 mice with similar sized tumors on both flanks were selected. The left flank tumors were injected with stapled WT p110α peptide, whereas the right flank tumors were injected with stapled p110α E545K mutant peptide. Each tumor was injected with 250 μg of peptide daily for 14 days. Control xenograft tumors were injected with an equal volume of water. The tumor sizes were measured every 2 days.

[3] = peptide-treated xenograft tumors

“H2N-SEITKQEK-D^549-FLW-S^553-HRHYC-COOH [stapled mutant peptide]” was tested, and the “effect on p110α-p85 interaction” value (p110α-p85 interaction) was “no effects”, the “cellular p110α-p85 interaction” value [1] was “did not interfere” and the “protein levels of p110α” value (p110α) was “slightly reduce”. For the same substance, the “levels of p85 and IRS1” value (p85 and IRS1) was “did not affect”, the “AKT signaling in xenograft tumors” value ([2]; FIG. 6 legend) was “inhibits” and the “AKT and Foxo1 phosphorylation in xenograft tumors” value [2, 3] was “reduced”. For the same substance, the “AKT phosphorylation at T308 and S473 residues in xenograft tumors” value [2, 3] was “only decreased AKT phosphorylation at the S473 residue”.
